# Values quoted from earlier work, collected in US20030195186A1, “Methods of treating medication-, substance-, disease-, and other medical condition-related sexual dysfunction” (priority 2002, published 2003).
# Conditions: intrathecal; spinal-cord injured male patients; case reports
compound,measurement,value
CN(C)C(=O)Oc1cccc([N+](C)(C)C)c1 [neostigmine],assisting patients with anejaculation to obtain ejaculation,being able to obtain ejaculation
